Source: ChEMBL document CHEMBL4725233, “Anti-inflammatory principles from Lindera aggregata” (Bioorg Med Chem Lett, 2020)

How the values were obtained:
Neutrophil [1] = experiment: Antiinflammatory activity in human neutrophils assessed as inhibition of fMLF/cytochalasin B-induced superoxide anion generation at 10 uM preincubated for 5 mins followed by fMLF addition after priming with CB for 3 mins by spectrophotometric analysis relative to control; assay type: functional
Neutrophil [2] = experiment: Antiinflammatory activity in human neutrophils assessed as inhibition of fMLF/cytochalasin B-induced superoxide anion generation preincubated for 5 mins followed by fMLF addition after priming with CB for 3 mins by spectrophotometric analysis; assay type: functional, cell-based

Row | Compound | inhibition at 10 µM (Neutrophil [1]) [%] | IC50 (Neutrophil [2]) [µM]
1 | COc1cc2c(cc1O)C[C@H]1c3c(cc(OC)c(OC)c3-2)CCN1C | > 50 | 8.36
2 | C=C1O[C@@H]2[C@@H](OC(C)=O)C3=C(C)C(=O)OC3=C[C@@]2(C)[C@@H]2C[C@H]12 | > 50 | 7.45
3 | O=c1c(-c2ccc(O)cc2)coc2cc(O)cc(O)c12 [GENISTEIN] |  | 1.11
4 | COc1cc2c(cc1O)C[C@H]1c3c(cc(OC)c(O)c3-2)CCN1C [ISOBOLDINE] | > 50 | 5.81
